Data: article PMC7464159, “Triple Negative Breast Cancer and Breast Epithelial Cells Differentially Reprogram Glucose and Lipid Metabolism upon Treatment with Triterpenic Acids” (Biomolecules, 2020)
Where two headings read alike, the source gives them in different places.

Legend:
[1] = test system: MDA-MB-231 cells; design: method as in PMID 22407812; details: BA 2.5–10 μM, 48 h; cited from earlier work
[2] = test system: MDA-MB-231 cells; assay: MTT cell viability assay; assay type: cell-based; details: Homo sapiens, mean ± SD, read-out: IC50 cell viability inhibition
Method: (§1) Cells were cultured in 96-well plates at 2 × 10^5 cells/mL (100 µL per well) and treated the following day with either BA or UA (0.5–50 µM), for 24 h, 48 h and 72 h. Vehicle solvent control cells received DMSO (0.25% v/v). Cell viability was estimated by the 3-(4,5-dimethylthiazol-2-yl)-2,5-diphenyltetrazolium bromide (MTT) assay as previously described by. After treatment incubation, 20 μL of MTT stock solution was added to each well (final concentration 0.5 mg/mL), and plates were incubated at 37 °C, for 4 h. Then, the medium was removed, and the formed formazan crystals were dissolved using a DMSO/ethanol (1:1) solution. Finally, absorbance of the formed product was measured at 570 nm using a microplate reader (MultiSkan FC, Thermo Fisher Scientific, Rochester, NY, USA). The IC50, defined as the concentration necessary to cause 50% inhibition of cell viability, was calculated using GraphPad Prism 5.0 (GraphPad Prism Software Inc., San Diego, CA, USA), by plotting the percentage of cell viability as a function of sample concentration logarithm. Three independent experiments were performed for each treatment.

[3] = test system: MCF-10A cells; assay: MTT cell viability assay; assay type: cell-based; details: Homo sapiens, mean ± SD, read-out: IC50 cell viability inhibition
Method: as §1

[4] = test system: MDA-MB-231 cells; assay: 1H NMR analysis of organic cell extracts (lipids); assay type: cell-based, human; details: 48 h; for levels of neutral lipids (cholesteryl esters and triglycerides): vs control; for plasmalogen lipids: high exposure concentration
Method: (§2) MDA-MB-231 and MCF-10A cells were seeded in 10-cm-diameter Petri dishes at a density of 6 × 10^5 cells/mL (10 mL per dish) and cultured for 24 h at 37 °C. Cells were then incubated for 48 h with BA (5 and 15 µM) or UA (10 and 20 µM). Vehicle solvent control cells received DMSO (0.10% v/v). Samples were collected immediately after 48 h incubation or, to assess cellular recovery, medium was replaced with fresh growth medium (without TAs), and cells were incubated for additional 24 h before collection (48 + 24 h samples). Four independent assays were performed.
(§3) After incubation, culture medium was collected and centrifuged (1000× g, 5 min) and the supernatant stored at −80 °C until analysis. Culture medium without cells was placed under the same conditions and collected. Cell extraction was performed as described by Carrola et al.. Briefly, cells were washed four times with PBS and extracted with a mixture of methanol:chloroform:water (1:1:0.7). The resulting polar and organic phases were collected and then dried under vacuum or under a stream of nitrogen gas, respectively. All samples were stored at −80 °C and, at the time of analysis, dried polar extracts were reconstituted in 600 µL of deuterated phosphate buffer (100 mM, pH 7.4) containing 0.1 mM TSP-d4, while organic extracts were reconstituted in deuterated chloroform containing 0.03% TMS. Regarding medium samples, 540 μL were mixed with 60 μL of D2O containing 0.25% TSP-d4. Prior to analysis, 550 μL of each sample were transferred to 5 mm NMR tubes.
(§4) ^1H NMR spectra of all samples were acquired on a Bruker Avance III HD 500 NMR spectrometer (University of Aveiro, Portuguese NMR Network) operating at 500.13 MHz for ^1H observation equipped with a 5 mm TXI probe. Standard 1D spectra (Bruker pulse programs ‘noesypr1d’, with water suppression, for medium samples and aqueous extracts, and ‘zg’ for organic extracts) were recorded with a 7002.8 Hz spectral width, 32 k data points, a 2 s relaxation delay and 512 scans. Spectral processing comprised exponential multiplication with 0.3 Hz line broadening, zero filling to 64 k data points, manual phasing, baseline correction, and chemical shift calibration to the TSP or TMS signal at 0 ppm. 2D ^1H-^1H total correlation (TOCSY) spectra, ^1H-^13C heteronuclear single quantum correlation (HSQC) spectra and J-resolved spectra were also registered for selected samples to assist spectral assignment. Metabolites were identified with the support of 2D spectra and the spectral reference databases BBIOREFCODE-2-0-0 (Bruker Biospin, Rheinstetten, Germany) and HMDB [28]. Selected signals were then integrated using the AmixViewer software […] (version 3.9.14, Bruker BioSpin, Rheinstetten, Germany) and normalized by the total spectral area. The magnitude of each metabolite change was assessed through the percentage of variation (and its respective error) in exposed samples relatively to controls, and through the effect size (ES) adjusted for small sample numbers (and respective standard error). Metabolite variations with absolute ES greater than 0.8 were expressed in a heatmap, colored as a function of the percentage of variation, employing the R statistical software.

[5] = test system: MCF-10A cells; assay: 1H NMR analysis of organic cell extracts (lipids); assay type: cell-based, human; details: for levels of triglycerides: vs control cells
Method: as §2, §3, §4

[6] = test system: MDA-MB-231 cells; assay: Cell cycle analysis by flow cytometry; assay type: cell-based, human; details: 48 h
Method: (§5) MDA-MB-231 and MCF-10A cells were seeded in six-well plates at a density of 4 × 10^5 cells/mL (2 mL per well) and cultured for 24 h at 37 °C. […] Vehicle solvent control cells received DMSO (0.10% v/v). Then, cells were trypsinized, collected, washed with phosphate buffered saline (PBS) and fixed with 85% cold ethanol. At the time of analysis, cells were centrifuged at 300× g for 5 min at 4 °C and resuspended in PBS, before being treated with RNase (50 µg/mL) and propidium iodide staining solution (50 µg/mL) and incubated, in the dark, for at least 20 min at room temperature. Propidium iodide-stained cells were analyzed on a Coulter EPICS XL (Beckman Coulter, Hialeah, FL, USA) flow cytometer. The results were acquired using the SYSTEM II software (version 3.0 Beckman-Coulter ®, Brea, CA, USA). Four replicates were performed for each treatment, and for each sample at least 5000 nuclei were acquired. Analysis of cell cycle distribution was performed using the FlowJo software (Tree Star, Ashland, USA).

[7] = test system: MCF-10A cells; assay: Cell cycle analysis by flow cytometry; assay type: cell-based, human; details: 48 h
Method: as §5

[8] = test system: MCF-10A cells; design: method as in PMID 29802332, PMID 30684465; details: previous studies; cited from earlier work

| Compound | IC50 ([2]; MDA-MB-231, 24 h) [µM] | IC50 ([2]; MDA-MB-231, 48 h) [µM] | IC50 ([2]; MDA-MB-231, 72 h) [µM] | IC50 ([3]; 24 h) [µM] | IC50 ([3]; 48 h) [µM] | IC50 ([3]; 72 h) [µM] | levels of neutral lipids (cholesteryl esters and triglycerides) [4] | plasmalogen lipids [4] | levels of triglycerides [5] | other results |
| --- | --- | --- | --- | --- | --- | --- | --- | --- | --- | --- |
| C=C(C)[C@@H]1CC[C@]2(C(=O)O)CC[C@]3(C)[C@H](CC[C@@H]4[C@@]5(C)CC[C@H](O)C(C)(C)[C@@H]5CC[C@]43C)[C@@H]12 [BA, betulinic acid] | 31.3 ± 5.94 | 13.2 ± 2.3 | 8.39 ± 0.98 | 22.4 ± 6.49 | 11 ± 1.83 | 2.38 ± 1.36 | decreased significantly | decreased | increased levels | cell cycle effect [1]: cell cycle arrest at G2/M phase; total glycerophospholipids and free cholesterol ([4]; BA): increased; levels of glycerophospholipids (including plasmalogen) ([5]; BA): decreased levels; relative amount of free cholesterol ([5]; BA): increased; cell population at the S phase ([6]; 15 µM, vs non-exposed control): decreased cell population; cells at the G2 phase ([6]; 15 µM, vs non-exposed control): significant accumulation; cells at the G0/G1 phase ([7]; 15 µM, vs control): decrease in the G0/G1 phase; cells at the G2 phase ([7]; 15 µM, vs control): cell cycle arrest at the G2 phase; cells at the S phase ([7]; 15 µM, vs control): increase in the S phase; influence on MCF-10A cells viability [8]: no influence |
| C[C@H]1[C@H](C)CC[C@]2(C(=O)O)CC[C@]3(C)C(=CC[C@@H]4[C@@]5(C)CC[C@H](O)C(C)(C)[C@@H]5CC[C@]43C)[C@H]12 [UA, ursolic acid] | 24.5 ± 4.61 | 17.2 ± 0.86 | 17.7 ± 2.81 | 37.9 ± 8.93 | 18.7 ± 3.27 | 21.5 ± 4.55 | decreased levels | decreased levels | increases | effect on cell cycle phases ([6]; 20 µM, vs untreated): no statistical differences; effect on cell cycle phases ([7]; 20 µM, vs untreated): no statistical differences |
